# Experimental data reported in paper PMC2967639 (Drug and alcohol dependence, 2010).
# How the values were obtained:
# LPS-induced paw edema [1] = conditions: ref Naidu et al., under review; cited from earlier work
# male ICR mice = assay: mouse tetrad assay; assay type: in vivo
# [2] = blood and brain tissue concentrations of THC and CBC by GC/MS; assay type: in vivo, mouse
# LPS-induced paw edema [3] = assay: LPS-induced paw edema model; assay type: in vivo, mouse; conditions: for LPS-induced paw edema (change in paw thickness of LPS-injected paw): i.p. 1 h before, 6 and 23 h after LPS, dose-response, measured 24 h, Figure 4A; for paw thickness of the LPS-injected paw, post hoc vs vehicle: 10, 30 and 100 mg/kg CBC, 10 and 30 mg/kg THC; for paw thickness of the saline-injected (contralateral) paw: data not shown; for effect of antagonist given alone on LPS paw edema: 3 mg/kg i.p. 30 min before each vehicle injection
# CB1 receptor = conditions: ref Booker et al., 2009; cited from earlier work
# wild type mice = conditions: i.v., ref Smith et al., 1994; cited from earlier work
# [4] = ref Hunt et al., 1980; Widman et al., 1974; cited from earlier work
molecule,measurement,setting,value
C[C@@H]1C[C@H]2[C@@H]3CCC4=CC(=O)C=C[C@]4(C)[C@@]3(F)[C@@H](O)C[C@]2(C)[C@@]1(O)C(=O)CO [dexamethasone],effect on LPS induced paw edema,LPS-induced paw edema [1],ameliorated LPS induced paw edema
"CCCCCc1cc(O)c2c(c1)OC(C)(CCC=C(C)C)C=C2 (centres unmarked) [CBC, cannabichromene]",potency in the tetrad relative to THC,male ICR mice; i.v.,substantially less potent than THC
same,effect of CBC on THC levels in brain,[2]; 30 or 100 mg/kg CBC i.v. with THC 0.3 mg/kg i.v.,significantly elevated
same,CBC levels in blood with increasing doses of CBC,"[2]; CBC 3-100 mg/kg i.v., with or without THC 0.3 mg/kg, 30 min, Figure 3C",significant increases
same,CBC levels in brain with increasing doses of CBC,"[2]; CBC 3-100 mg/kg i.v., with or without THC 0.3 mg/kg, 30 min, Figure 3D",significant increases
same,LPS-induced paw edema (change in paw thickness of LPS-injected paw),LPS-induced paw edema [3],dose-related decreases
same,"paw thickness of the LPS-injected paw, post hoc vs vehicle",LPS-induced paw edema [3]; i.p.,significant decreases
same,paw thickness of the saline-injected (contralateral) paw,LPS-induced paw edema [3]; i.p.,neither drug affected the paw thickness
same,Ki,CB1 receptor,> 10 µM
CCCCC/C=C\C/C=C\C/C=C\C/C=C\CCCC(=O)NCCO [anandamide],"fold less potent in producing antinociception than hypomotility, catalepsy and hypothermia",wild type mice,3 – 4 fold
SR144528,effect of antagonist given alone on LPS paw edema,LPS-induced paw edema [3],Neither rimonabant nor SR144528 given alone affected LPS paw edema
"Cc1c(C(=O)c2cccc3ccccc23)c2cccc3c2n1[C@H](CN1CCOCC1)CO3 [WIN55,212-2]",effect on LPS induced paw edema,LPS-induced paw edema [1],ameliorated LPS induced paw edema
"CCCCCc1cc(O)c2c(c1)OC(C)(C)[C@@H]1CCC(C)=C[C@@H]21 [THC, Δ^9-tetrahydrocannabinol]",activity in the tetrad at threshold dose,male ICR mice; THC 0.3 mg/kg i.v.,inactive
same,effect of THC on CBC blood and brain levels,[2]; THC 0.3 mg/kg i.v. 10 min after CBC 3-100 mg/kg i.v.,no effects
same,LPS-induced paw edema (change in paw thickness of LPS-injected paw),LPS-induced paw edema [3],dose-related decreases
same,"paw thickness of the LPS-injected paw, post hoc vs vehicle",LPS-induced paw edema [3]; i.p.,significant decreases
same,paw thickness of the saline-injected (contralateral) paw,LPS-induced paw edema [3]; i.p.,neither drug affected the paw thickness
same,"ED50 (95% confidence intervals), LPS-induced paw edema","LPS-induced paw edema [3]; individual dose-response curves, i.p.",4.0 (2.7 to 5.9) mg/kg
same,THC in blood bound to plasma,[4],About 90%
same,THC in blood bound to red blood cells,[4],10%
same,plasma THC bound to lipoproteins,[4],95 – 99%
NC(=O)c1cccc(-c2cccc(OC(=O)NC3CCCCC3)c2)c1 [URB597],effect on LPS induced paw edema,LPS-induced paw edema [1],ameliorated LPS induced paw edema
Cc1c(C(=O)NN2CCCCC2)nn(-c2ccc(Cl)cc2Cl)c1-c1ccc(Cl)cc1 [rimonabant],blockade of the tetrad effects of CBC,male ICR mice; rimonabant 3 mg/kg 10 min before CBC 100 mg/kg i.v.,failed to block the pharmacological effects of CBC
same,main effect of rimonabant on the four tetrad measures,"male ICR mice; rimonabant 3 mg/kg, 10 min before vehicle or CBC 100 mg/kg",no significant main effects
same,effect of antagonist given alone on LPS paw edema,LPS-induced paw edema [3],Neither rimonabant nor SR144528 given alone affected LPS paw edema
same,antagonism of the anti-edematous effects of THC,"LPS-induced paw edema [3]; antagonist 3 mg/kg 30 min before each THC 10 mg/kg i.p. injection, Figure 4B",but not rimonabant
